Laboratory results taken from US6391304B1, “Peptides derived from the ENV gene of the feline immunodeficiency virus and their applications” (Centre National de la Recherche Scientifique, priority 1997, dated 2002).
Several values for one entry are separate records, joined by “and”; a condition that tells them apart may be missing. Equal entries are not always repeated. Entries after “also recorded” stand apart in the source; their conditions may differ. Ends that are not written are not given here.

What was measured:
[1] = test system: immobilized peptide (SU2, SU5, TM2 or TM3-19); assay: ELISA anti-peptide titre during the immunization of cats; assay type: in vivo; conditions: individual cats immunized with KLH-coupled peptide; absorbance at 405 nm greater than 0.1
Description: (§1) Groups of four cats 4½ months old are immunized subcutaneously with 120 μg of FIV peptide (approximately 250 μg of peptide coupled to KLH (keyhole limpet haemocyanin)), emulsified in complete Freund's adjuvant.
(§2) Four repeat immunizations are administered subcutaneously in an incomplete Freund's adjuvant, generally at intervals of 2-3 weeks, although the interval between the last 2 […] was 7 weeks.
(§3) The production on of antibodies is evaluated before the test by means of an ELISA using an immobilized peptide (SU2, SU5, TM2 or TM3-19) and immunoprecipitation. After the test, the seroconversion is monitored by an ELISA using immobilized envelope peptides and a recombinant FTV capsid protein.
(§4) The ELISA with the immobilized envelope peptides corresponding to the immunogenic domains SU2 and TM2 and with the immobilized recombinant p25 protein (FIV capsid protein) is carried out as described in Avraméas A. et al. (Res. Virol., 1993, 144, 209-218).
(§5) Microplates (Immunolon II, Dynatech) are coated with 0.5 μg/well for the peptides and with 0.1 μg/well for the p25 protein.
(§6) The tests are carried out in duplicate and the results are expressed as average values.
The anti-peptide titres before the test are expressed as the logarithm of the inverse of the last dilution of serum which gives an absorbance (at 405 nm) of greater than 0.1.

FIV Petaluma strain = assay: Neutralization of infection of CrFK cells by sera of immunized cats; assay type: cell-based; conditions: for neutralizing antibodies in sera of immunized cats: CrFK cell line
Description: The detection of antibodies neutralizing the infection of the CrFKs with the FIV Petaluma strain is carried out as described previously (Richardson J. et al., J. Gen. Virol., 1996, 77, 759-771).
To evaluate the function of the antibodies, the feline sera directed against the SU2 peptide are tested for their neutralizing value with respect to the infection of CrFK cells with the FIV Petaluma strain.

TM2 envelope peptide = assay: Seroconversion ELISA after the virulence test, TM2 peptide; assay type: in vivo, cats; conditions: for Binding of the sera to TM2, 3 weeks after the virulence test / Binding of the sera to TM2, 4 weeks after the virulence test / Binding of the sera to TM2, 5 weeks after the virulence test: ELISA, seral dilution 1/25, individual cats; for response against the TM2 peptide: at 4 weeks after the test
Description: (§7) The cats are subjected to a virulence test, one week after the final immunization, by means of an intraperitoneal inoculation of 10 CID50 of FIV Wo isolate, one CID50 corresponding to the dose capable of infecting 50% of the cats.
as §3, §4, §5, §6
After the test, the seroconversion against the envelope peptides and the p25 protein is evaluated at serum dilutions of 1/25 and 1/100, respectively.
The absorbance values (at 405 nm) are corrected by subtraction of the absorbance values obtained by binding with an immobilized control peptide.
The tests are normalized with reference to the binding of a mixture of serum from cats infected with FIV with a peptide representing the immunodominant domain of the FIV transmembrane glycoprotein (TM2) (Avraméas A. et al., Res. Virol., 1993, 144, 209-218).

CD4+ T lymphocytes = assay: Counting of circulating CD4+ T lymphocytes by flow cytometry; assay type: in vivo, cats; conditions: acute infection with FIV Wo, FIG. 2
Description: Counting of the CD4^+ T lymphocytes is carried out at regular intervals before the test, on the day of the test and at regular intervals during the acute infection.
The CD4^+ T lymphocytes are counted by flow cytometry, using monoclonal antibodies (Clinisciences).
To evaluate the effect of the immunization on the pathology associated with a primary infection, circulating CD4^+ lymphocytes are counted before and after the test with the FIV Wo strain.

FIV Wo isolate = assay: Plasmatic viral load by competitive RT-PCR after the virulence test; assay type: in vivo, cats; conditions: for course of the primary infection (viral RNA in plasma, viral dissemination): after test with 10 CID50 of Wo isolate, relative to control cats, FIG. 3
Description: as §1, §2, §7
The plasma is filtered (0.45 μm) and the RNA not associated with cells is extracted directly from the filtered plasma using the Viral RNA kit (Qiagene) and eluted in 50 μl of water according to the manufacturer's instructions, and the RNA is then divided into aliquots and stored at −80° C.
A conserved region of the FIV gag gene is selected as a target sequence for the reverse transcription of the competitive RNA and the overlapping PCR amplification.
For the synthesis of the cDNA, 2.5 μl of viral RNA are mixed with 2.5 μl containing different numbers of copies of competitive RNA; typically, the various samples of competitive RNA are prepared using 5 semi-logarithmic dilutions, straddling the number of copies estimated in the biological sample.
The RNA is denatured at 65° C. for 5 minutes and immediately placed on ice. The reagents for the reverse transcription (15 μl) are added.
The final reaction mixtures contain 0.3 U/ml of random hexanucleotides (sequences of 6 randomly aligned nucleotides which make it possible theoretically to amplify any RNA fragment) (Pharmcia), 0.5 mM of dNTP, 10 mM of DTT, 1× of commercial buffer (Gibco BRL) and 100 U of Superscript II (Glbco BRL), in a volume of 20 μl.
The reactions are first carried out at 25° C. for 10 minutes to promote the hybridization of the primers, and then at 42° C. for 50 minutes. The reverse transcriptase is inactivated by incubation at 95° C. for 5 minutes.
The highly conserved sequences are selected as primers. The complementary DNA is amplified by overlapping PCR, using:
For the first amplification, the PCR reagents (80 μl) are added as a mixture with 20 μl of cDNA.
The DNA is denatured at 94° C. for 3 minutes, subjected to 28 cycles of amplification (94° C. 30 s/55° C. 30 s/72° C. 30 s) and to an elongation at 72° C. for 7 minutes.
For the overlapping amplification, 2 μl of the product of the first amplification is transferred into 98 μl of reaction mixture containing 200 μM of dNTP, 1.5 mM of MgCl2, 0.5 μM of each internal primer, 1× of commercial buffer (Gibco BRL) and 0.25 U of Taq polymerase (Gibco BRL).
The DNA is denatured at 94° C. for 3 minutes, subjected to 28 cycles of amplification (94° C. 30 s/52° C. 30 s/72° C. 30 s) and to an elongation at 72° C. for 7 minutes.
The amplification products (10 μl ) are subjected to electrophoresis on 2.75% agarose gel.
Digital images of the gels stained with ethidium bromide are obtained using the Appligene Imager and the densitometry analyses are carried out with the Image NIH software. The density of the competitive product is adjusted as a function of the difference between the length of the native sequence and that of the competitive sequence.
The logarithm of the ratio:density or competitive product/density of the native product, is plotted as a function of the logarithm of the number of copies of competitive RNA added to each reaction.
The best adjustment is determined by the least-squares method and the number of copies of native RNA corresponds to the intersection of the axis of the Xs (Piatak M. Jr. et al., Biotechniques, 1993, 14, 70-80).
The cumulative area under the curve (Dawson J., Drug Information J., 1994, 28, 723-732) is calculated from graphs illustrating the ratio: copies of viral RNA/ml of plasma/time, and compared with the Mann-Whitney test.

Row | Substance | Anti-peptide titre, 1st injection [1] | Anti-peptide titre, 2nd injection [1] | Anti-peptide titre, Day of the test [1] | neutralizing antibodies in sera of immunized cats (FIV Petaluma strain) | Binding of the sera to TM2, 3 weeks after the virulence test (TM2 envelope peptide) | Binding of the sera to TM2, 4 weeks after the virulence test (TM2 envelope peptide) | Binding of the sera to TM2, 5 weeks after the virulence test (TM2 envelope peptide) | response against the TM2 peptide (TM2 envelope peptide) | number of CD4+ lymphocytes after the infection (CD4+ T lymphocytes) | Plasmatic viraemia, RT-PCR (FIV Wo isolate; 3 weeks after the test with 10 CID50 of FIV Wo, individual cats) | course of the primary infection (viral RNA in plasma, viral dissemination) (FIV Wo isolate) | reduction in the viral load relative to the control cats, Mann-Whitney test p (FIV Wo isolate; area under the cumulative curve at 3 weeks and 4 weeks after the test) | detection of plasmatic viraemia during the measurement period (FIV Wo isolate; cat 348) | number of copies of viral RNA observed in plasma (maximum) (FIV Wo isolate; primary infection, measurement period) | final dilution of serum which reduces the infection by at least 50% (FIV Petaluma strain; cat 327, CrFK cells)
1 | KKGLQQLQEWEDWVGWIGN [TM3-19, 19-amino-acid fragment of the TM3 domain of the FIV Wo Env transmembrane glycoprotein (759-777)] | 4.71 logarithm of the inverse of the last dilution of serum and 5.01 logarithm of the inverse of the last dilution of serum and 5.31 logarithm of the inverse of the last dilution of serum | 4.71 logarithm of the inverse of the last dilution of serum and 5.31 logarithm of the inverse of the last dilution of serum and 5.01 logarithm of the inverse of the last dilution of serum and 3.20 logarithm of the inverse of the last dilution of serum | 4.40 logarithm of the inverse of the last dilution of serum (3×) and 4.71 logarithm of the inverse of the last dilution of serum | do not neutralize | 0 optical density (3×) and 1.2 optical density | 0.1 optical density and 2.4 optical density and 0 optical density and 0.5 optical density | 1.9 optical density and 2.5 optical density and 0 optical density and 2.3 optical density | all but one (347) of the cats immunized with the TM3-19 peptide show a weak or undetectable response | does not show a large decrease | undetectable (2×) and 1.19 × 10^7 copies of viral RNA/ml of plasma and 5.56 × 10^6 copies of viral RNA/ml of plasma | generally different from that observed with the control cats; also recorded: the infection in the other 3 cats of this group appears in a retarded manner; also recorded: significantly retards the viral dissemination | 0.02 | not possible to detect a plasmatic viraemia in one of the cats (348) | ≤ 3.1×10^6 copies/ml | –
2 | SU2: peptide of the SU2 domain of the FIV surface envelope glycoprotein, SEQ ID NO: 2, used as immunogen (RAISSWKQRNRWEWRPD) | 4.40 logarithm of the inverse of the last dilution of serum and 5.31 logarithm of the inverse of the last dilution of serum and 4.71 logarithm of the inverse of the last dilution of serum and 5.01 logarithm of the inverse of the last dilution of serum | 4.71 logarithm of the inverse of the last dilution of serum and 5.01 logarithm of the inverse of the last dilution of serum (2×) and 5.31 logarithm of the inverse of the last dilution of serum | 5.31 logarithm of the inverse of the last dilution of serum and 4.71 logarithm of the inverse of the last dilution of serum and 5.61 logarithm of the inverse of the last dilution of serum and 5.01 logarithm of the inverse of the last dilution of serum | Only one cat (327) immunized with the SU2 peptide develops neutralizing antibodies | 0 optical density | 1.3 optical density and 2.2 optical density and 2.1 optical density and 1.4 optical density | 2.1 optical density (2×) and 2.3 optical density and 2.5 optical density | developed a large response | gradual reduction | – | does not appear to modify the course of the primary infection; also recorded: do not modify the course of the infection | – | – | – | 1/160
